What all share (test): growth of human tumour cells (NCI), 48 h
For experiment [1], the system named is SNB-75 CNS.
Experiment [2] concerns A498 renal.
Experiment [3] has as its system NCI-H23 lung.
Experiment [4] relates to OVCAR-8 ovarian.
Experiment [5] concerns HCC-2998 colon.
The subject of experiment [6] is SR leukemia.
Experiment [7] deals with SNB-19 CNS.
In experiment [8] the test system is MCF7 breast.
The test system of experiment [9] is SK-MEL-5 melanoma.
For experiment [10], the system named is COLO 205 colon.
Experiment [11] has as its system MDA-MB-435.
Experiment [12] relates to RPMI-8226 leukemia.
Experiment [13] has as its system CCRF-CEM leukemia.
Experiment [14] relates to EKVX NSCLC.
Experiment [15] has as its system A549 NSCLC.
Experiment [16] relates to HT29 colon.
The subject of experiment [17] is MDA-N.
Experiment [18] relates to HL-60(TB) leukemia.
The subject of experiment [19] is MOLT-4 leukemia.
The test system of experiment [20] is HCT-15 colon.

The structures appear in SMILES notation.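 Where inhibition never reached the appropriate level, the endpoint shown equals the highest concentration tested. Otherwise, values were interpolated linearly from a five-concentration, 48-hour dose response in 96-well plates. The concentration for full growth arrest is given as TGI.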

`Nc1nc(N)c2nc(CN(C=O)c3ccc(C(=O)O)cc3)cnc2n1`: the TGI in experiment [1] is > 100 µM; in [2] it was > 79.9 µM; in experiment [3], > 100 µM; in experiment [4], > 100 µM; in [5] it was > 100 µM; in [6], > 100 µM. In addition, the TGI in [7], in experiment [8], in [9], in experiment [10], in experiment [11] and in experiment [12] was > 100 µM each time. The TGI in [13], in experiment [14], in experiment [15], in [16], in [17] and in experiment [18] was > 100 µM in each case. Also, the TGI in experiment [19] and in experiment [20] was > 100 µM each time.

Consider `COCN1C(=O)[C@@H]2CCCN2C(=O)c2ccc(N)cc21`, for which the TGI in [1], in experiment [2], in experiment [3], in [4], in experiment [5] and in experiment [6] was > 100 µM each time. Moreover, the TGI in [7], in experiment [8], in [9], in experiment [10], in experiment [11] and in [12] was > 100 µM throughout. For the same compound, the TGI in experiment [13], in experiment [14], in experiment [15], in experiment [16], in experiment [17] and in experiment [18] was > 100 µM each time. The TGI in experiment [19] and in experiment [20] was > 100 µM each time.

As for `COc1cc(/C=C(\C)[N+](=O)[O-])cc(OC)c1`, the TGI in [1] came to 31.8 µM; in experiment [2] it was 25 µM; in [3] it was 37.1 µM; in experiment [4] it was 29.7 µM; in [5] it was 55.5 µM; in [6] it was 7.04 µM. Moreover, the TGI in [7] was > 56.2 µM; in [8] it was 21.1 µM; in experiment [9] it was 31.7 µM; in experiment [10], 20.1 µM; in experiment [11], 28.3 µM; in experiment [12], 9.04 µM. Moreover, the TGI in experiment [13] stood at 5.77 µM; in experiment [14], 33.9 µM; in [15] it was 61.5 µM; in experiment [16] it was 38.5 µM; in experiment [17], 17.5 µM; in experiment [18], 4.33 µM. Also, the TGI in experiment [19] was determined as 6.16 µM; in experiment [20], 29.9 µM.

Turning to `NC1=Nc2cc(C(F)(F)F)ccc2Sc2nc3ccccc3n21`, the TGI in experiment [1] is 71.2 µM; in experiment [2], > 100 µM; in [3] it was > 100 µM; in experiment [4], > 100 µM; in experiment [5], > 100 µM; in experiment [6], > 25.4 µM. Moreover, the TGI in experiment [7], in [8], in experiment [9], in experiment [10], in experiment [11] and in [12] was > 100 µM each time. In addition, the TGI in experiment [13] is > 24.8 µM; in experiment [14], > 100 µM; in experiment [15], > 100 µM; in experiment [16], > 100 µM; in experiment [17], > 100 µM; in [18], > 26 µM. For the same compound, the TGI in experiment [19] and in experiment [20] was > 100 µM each time.

As to `Clc1ccc(-c2cn3c(nc4ccccc43)c(-c3ccccc3)n2)cc1`, the TGI in experiment [1] was > 36.6 µM; in [2], 54 µM; in experiment [3], 64.2 µM; in [4], 33 µM; in [5], > 100 µM; in experiment [6], > 100 µM. Further, the TGI in [7] was 32.6 µM; in [8], > 100 µM; in experiment [9], 46.5 µM; in [10] it was > 100 µM; in experiment [11], > 100 µM; in experiment [12] it was > 100 µM. Also, the TGI in experiment [13] was > 100 µM; in [14], > 100 µM; in experiment [15], 51.4 µM; in experiment [16] it was > 67.5 µM; in experiment [17] it was > 100 µM; in [18], > 100 µM. Also, the TGI in experiment [19] and in experiment [20] was > 100 µM throughout.

As to `COC(=O)c1ccccc1C1CN=NC12Cc1ccc(C)cc1C2=O` (stereo not given), the TGI in [1], in [2], in experiment [3], in [4], in experiment [5] and in [6] was > 100 µM in each case. Also, the TGI in [7], in [8], in experiment [9], in experiment [10], in experiment [11] and in experiment [12] was > 100 µM throughout. Moreover, the TGI in experiment [13], in experiment [14], in experiment [15], in [16], in experiment [17] and in [18] was > 100 µM throughout. Besides, the TGI in experiment [19] and in experiment [20] was > 100 µM each time.

On to `CC(=O)OC1CCn2c1nc1cc([N+](=O)[O-])c(C)cc12` (stereo not given), for which the TGI in [1], in experiment [2], in [3], in experiment [4], in experiment [5] and in [6] was > 100 µM throughout. For the same compound, the TGI in experiment [7], in experiment [8], in [9], in experiment [10], in experiment [11] and in [12] was > 100 µM each time. Besides, the TGI in experiment [13], in [14], in experiment [15], in experiment [16], in [17] and in [18] was > 100 µM each time. Besides, the TGI in experiment [19] and in [20] was > 100 µM in each case.

Source of the values: PubChem BioAssay (NCI).
